Results taken from patent US6365613B1, “Fungicidal mixtures” (BASF Aktiengesellschaft, priority 1997, dated 2002).

System: Botrytis cinerea
Assay: Activity against Botrytis cinerea on bell peppers (fruit disks, protective spray)
Format: in vivo
Settings: single active ingredient, green bell pepper disks, 4 days at 18° C.
Description: Activity against Botrytis cinerea on bell peppers
Disks of green bell peppers were sprayed to runoff point with an aqueous preparation of active ingredient which had been prepared from a stock solution comprising 10% of active compound, 63% of cyclohexanone and 27% of emulsifier. 2 hours after the spray coating had dried on, the fruit disks were inoculated with a spore suspension of Botrytis cinerea containing 1.7×10^6 spores per ml of a 2% strength Biomalz solution. The inoculated fruit disks were subsequently incubated in humid chambers at 18° C. for 4 days. The Botrytis infection on the diseased fruit disks was then evaluated visually.
Evaluation was carried out by determining the infected leaf areas in percent. These percentages were converted into efficacies. The efficacy (E) was calculated as follows using Abbot's formula: […]
α corresponds to the fungal infection of the treated plants in % and β corresponds to the fungal infection of the untreated (control) plants in % An efficacy of 0 means that the infection level of the treated plants corresponds to that of the untreated control plants; an efficacy of 100 means that the treated plants were not infected.
The expected efficacies of the mixtures of the active ingredients were determined using Colby's formula [R. S. Colby, weeds 15 (1967), 20-22] and compared with the observed efficacies.
Colby's formula: E=x+y−x·y/100
E expected efficacy, expressed in % of the untreated control, when using the mixture of the active ingredients A and B at the concentrations a and b x efficacy, expressed in % of the untreated control, when using the active ingredient A at the concentration a y efficacy, expressed in % of the untreated control, when using the active ingredient B at the concentration b

In the case of CO/N=C(/C(=O)OC)c1ccccc1COc1ccccc1C [Compound Ia], the “Efficacy in % of the untreated control” value (6.3 ppm in the spray liquor) is reported as 20%, the “Efficacy in % of the untreated control” value (12.5 ppm in the spray liquor) is reported as 30% and the “Efficacy in % of the untreated control” value (25 ppm in the spray liquor) is reported as 30%. For the same molecule, the “Efficacy in % of the untreated control” value (50 ppm in the spray liquor) was 50%.

With CO/N=C(/C(=O)OC)c1ccccc1COc1cc(C)ccc1C [Compound Ic] the “Efficacy in % of the untreated control” value (12.5 ppm in the spray liquor) was 50% and the “Efficacy in % of the untreated control” value (25 ppm in the spray liquor) was 80%.

With COC(=O)NC(=S)Nc1ccccc1NC(=S)NC(=O)OC [Comp. IIf, dimethyl 4,4′-(o-phenylene)bis(3-thioallophanate), reference compound] the “Efficacy in % of the untreated control” value (12.5 ppm in the spray liquor) was 0%, the “Efficacy in % of the untreated control” value (25 ppm in the spray liquor) was 0% and the “Efficacy in % of the untreated control” value (50 ppm in the spray liquor) was 20%.

CCCCNC(=O)n1c(NC(=O)OC)nc2ccccc21 [Comp. IIa, methyl 1-(butylcarbamoyl)benzimidazol-2-ylcarbamate, reference compound] was tested, and the “Efficacy in % of the untreated control” value (6.3 ppm in the spray liquor) was 10% and the “Efficacy in % of the untreated control” value (12.5 ppm in the spray liquor) was 20%.
